Source: ChEMBL document CHEMBL1201862, “PubChem BioAssay data set” (2004)
Calls of active or inactive are those of the source.

How the values were obtained:
[1] = biological target: Melanin-concentrating hormone receptor 1 (Homo sapiens, UniProt Q99705); experiment: Late-stage fluorescence-based counterscreen for antagonists of the G-protein coupled receptor 7 (GPR7): cell-based dose response assay to identify antagonists of the melanin-concentrating hormone receptor 1 (MCHR1). [Related pubchem assays (depositor defined):AID1861, AID1880, AID1952, AID2148, AID2251, AID2257, AID485339]; format: functional;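 also: stimulated with 30 nM MCH peptide agonist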
Melanin-concentrating hormone receptor 1, sequence (Q99705 whole entry): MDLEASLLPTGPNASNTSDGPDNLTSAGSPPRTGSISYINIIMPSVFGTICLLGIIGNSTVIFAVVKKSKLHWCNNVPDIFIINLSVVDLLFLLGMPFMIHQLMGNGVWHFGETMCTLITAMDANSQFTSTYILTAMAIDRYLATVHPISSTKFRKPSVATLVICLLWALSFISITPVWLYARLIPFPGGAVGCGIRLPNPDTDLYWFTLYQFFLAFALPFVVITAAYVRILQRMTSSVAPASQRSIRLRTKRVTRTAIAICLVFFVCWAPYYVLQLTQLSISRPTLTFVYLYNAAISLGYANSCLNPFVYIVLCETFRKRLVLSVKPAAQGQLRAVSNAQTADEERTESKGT

[2] = biological target: T1, Neuropeptides B/W receptor type 1 (Homo sapiens, UniProt P48145); experiment: GPR7 antagonist potency, late-stage follow-up, cell-based, fluorescence, dose response (AID 463251); format: functional
T1 sequence (P48145 whole entry): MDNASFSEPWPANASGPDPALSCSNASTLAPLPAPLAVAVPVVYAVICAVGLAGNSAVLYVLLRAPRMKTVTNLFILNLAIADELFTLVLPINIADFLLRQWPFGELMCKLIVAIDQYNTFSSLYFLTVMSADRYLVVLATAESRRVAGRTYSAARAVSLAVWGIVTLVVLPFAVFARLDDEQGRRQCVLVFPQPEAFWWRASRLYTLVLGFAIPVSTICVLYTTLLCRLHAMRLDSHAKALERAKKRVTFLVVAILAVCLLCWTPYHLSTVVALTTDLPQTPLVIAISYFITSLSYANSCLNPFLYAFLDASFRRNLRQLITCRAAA

[3] = biological target: Wee1-like protein kinase (Homo sapiens, UniProt P30291); experiment: G2/M cell cycle arrest in HeLa, late-stage follow-up, mechanism study for Wee1 degradation inhibitor project, FACS, panel member Wee1 Degradation (AID 2088)
Wee1-like protein kinase, sequence (P30291 whole entry): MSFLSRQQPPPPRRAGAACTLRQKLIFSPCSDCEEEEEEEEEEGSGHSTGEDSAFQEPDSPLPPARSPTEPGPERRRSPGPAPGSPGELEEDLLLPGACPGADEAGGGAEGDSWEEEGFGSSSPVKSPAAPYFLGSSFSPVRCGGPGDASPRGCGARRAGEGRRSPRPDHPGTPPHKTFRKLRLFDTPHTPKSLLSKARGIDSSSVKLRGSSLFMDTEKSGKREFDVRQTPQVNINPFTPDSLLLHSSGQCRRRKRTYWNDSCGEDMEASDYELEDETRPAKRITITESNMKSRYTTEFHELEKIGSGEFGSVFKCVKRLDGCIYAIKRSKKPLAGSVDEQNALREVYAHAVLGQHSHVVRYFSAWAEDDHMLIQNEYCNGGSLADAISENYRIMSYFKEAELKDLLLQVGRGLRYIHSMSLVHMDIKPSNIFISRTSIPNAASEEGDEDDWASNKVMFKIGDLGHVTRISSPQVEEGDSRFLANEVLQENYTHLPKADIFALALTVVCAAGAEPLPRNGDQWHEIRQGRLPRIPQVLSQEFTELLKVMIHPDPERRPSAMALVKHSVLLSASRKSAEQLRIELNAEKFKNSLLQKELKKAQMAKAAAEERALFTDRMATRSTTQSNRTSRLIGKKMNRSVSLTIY

[4] = biological target: G2/mitotic-specific cyclin-B1 (Homo sapiens, UniProt P14635); experiment: G2/M cell cycle arrest in HeLa, late-stage follow-up, mechanism study for Wee1 degradation inhibitor project, FACS, panel member Cyclin B Degradation (AID 2088)
G2/mitotic-specific cyclin-B1, sequence (P14635 whole entry): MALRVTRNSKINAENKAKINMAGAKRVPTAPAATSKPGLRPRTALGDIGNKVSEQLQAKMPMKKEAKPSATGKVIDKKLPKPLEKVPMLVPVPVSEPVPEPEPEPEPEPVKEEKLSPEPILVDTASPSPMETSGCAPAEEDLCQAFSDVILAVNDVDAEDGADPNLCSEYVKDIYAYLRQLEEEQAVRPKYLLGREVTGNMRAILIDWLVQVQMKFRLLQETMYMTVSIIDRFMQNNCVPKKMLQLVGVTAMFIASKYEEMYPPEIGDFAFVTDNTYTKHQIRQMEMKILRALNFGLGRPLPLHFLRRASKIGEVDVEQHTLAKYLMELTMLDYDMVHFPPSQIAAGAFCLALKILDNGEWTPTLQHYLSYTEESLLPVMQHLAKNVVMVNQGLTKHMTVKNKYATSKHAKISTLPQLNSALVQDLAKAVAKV

[5] = biological target: Mu-type opioid receptor (Homo sapiens, UniProt P35372); experiment: SAR Analysis of Antagonists of the MOR Receptor using an Image-Based Assay - Set 3. [Related pubchem assays (depositor defined):AID1777, AID1785, AID1786, AID1966, AID2133, AID2136, AID2284, AID2285, AID2420]; format: functional
Mu-type opioid receptor, sequence (P35372 whole entry): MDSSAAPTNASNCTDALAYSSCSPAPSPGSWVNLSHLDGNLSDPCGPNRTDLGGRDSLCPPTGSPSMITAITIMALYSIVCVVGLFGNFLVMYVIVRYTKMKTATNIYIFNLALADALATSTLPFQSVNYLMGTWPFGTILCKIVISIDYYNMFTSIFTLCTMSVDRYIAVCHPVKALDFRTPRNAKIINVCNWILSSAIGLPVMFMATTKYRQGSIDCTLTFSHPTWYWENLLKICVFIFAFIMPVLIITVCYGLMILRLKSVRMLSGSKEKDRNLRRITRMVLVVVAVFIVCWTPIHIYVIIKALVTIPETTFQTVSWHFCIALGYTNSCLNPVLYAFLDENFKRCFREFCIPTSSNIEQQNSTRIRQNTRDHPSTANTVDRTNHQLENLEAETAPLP

[6] = biological target: T2, Kappa-type opioid receptor (Homo sapiens, UniProt P41145); experiment: SAR analysis of small molecule antagonists of the kappa opioid receptor via a luminescent beta-arrestin assay - Set 4. [Related pubchem assays (depositor defined):AID1777, AID1778, AID1785, AID1786, AID1966, AID2133, AID2136, AID2285]; format: functional
T2 sequence (P41145 whole entry): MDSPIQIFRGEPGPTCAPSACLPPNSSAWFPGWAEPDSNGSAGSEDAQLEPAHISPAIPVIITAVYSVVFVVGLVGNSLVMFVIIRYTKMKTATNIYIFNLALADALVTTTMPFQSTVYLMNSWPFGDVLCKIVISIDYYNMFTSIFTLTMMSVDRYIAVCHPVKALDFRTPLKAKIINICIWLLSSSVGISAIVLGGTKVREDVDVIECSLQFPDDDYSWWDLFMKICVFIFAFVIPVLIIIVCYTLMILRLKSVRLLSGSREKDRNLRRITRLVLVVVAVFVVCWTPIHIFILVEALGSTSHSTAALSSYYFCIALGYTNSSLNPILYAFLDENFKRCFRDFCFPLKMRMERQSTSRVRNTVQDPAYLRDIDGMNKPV

[7] = biological target: Delta-type opioid receptor (Homo sapiens, UniProt P41143); experiment: SAR Analysis of Antagonists of the DOR Receptor using an Image-Based Assay - Set 3. [Related pubchem assays (depositor defined):AID1777, AID1785]; format: functional;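 also: U2OS cells expressing DOR1 and beta-arrestin GFP stimulated with 100 nM SNC80; imaging of GFP-tagged beta-arrestin moving into spots after receptor activation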
Delta-type opioid receptor, sequence (P41143 whole entry): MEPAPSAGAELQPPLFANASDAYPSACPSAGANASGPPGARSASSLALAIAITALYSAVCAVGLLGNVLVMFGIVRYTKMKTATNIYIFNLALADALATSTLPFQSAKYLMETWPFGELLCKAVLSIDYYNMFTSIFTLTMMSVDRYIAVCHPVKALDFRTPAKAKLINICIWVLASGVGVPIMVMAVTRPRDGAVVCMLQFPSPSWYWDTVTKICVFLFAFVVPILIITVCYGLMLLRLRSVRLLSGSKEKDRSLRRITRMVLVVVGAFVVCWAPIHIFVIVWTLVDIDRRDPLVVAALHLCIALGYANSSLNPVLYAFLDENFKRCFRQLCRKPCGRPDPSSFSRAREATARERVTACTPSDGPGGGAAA

[8] = biological target: T2, Kappa-type opioid receptor; experiment: SAR analysis of Antagonists of the Kappa Opioid Receptor (KOR) using an Image-Based Assay - Set 4. [Related pubchem assays (depositor defined):AID1777, AID1785]; format: functional
[9] = biological target: Eukaryotic translation initiation factor 4E (Mus musculus, UniProt P63073); experiment: eIF4E–eIF4G protein interaction inhibitors, dose response, biochemical, TR-FRET (AID 855); format: functional;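 also: potency for disrupting eIF4E binding to eIF4GI seen as loss of FRET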
Eukaryotic translation initiation factor 4E, sequence (P63073 whole entry): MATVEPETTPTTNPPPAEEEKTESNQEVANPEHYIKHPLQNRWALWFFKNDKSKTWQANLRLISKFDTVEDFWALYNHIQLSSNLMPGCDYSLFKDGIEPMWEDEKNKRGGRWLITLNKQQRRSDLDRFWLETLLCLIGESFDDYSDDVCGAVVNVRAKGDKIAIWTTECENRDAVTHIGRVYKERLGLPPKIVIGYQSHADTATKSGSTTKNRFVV

[10] = Luminescence Cell-Based Dose Retest to Confirm Inhibitors of Cancer Stem Cells. [Related pubchem assays (depositor defined):AID2717, AID2721]; format: functional; settings: Homo sapiens
[11] = biological target: Scavenger receptor class B member 1 (Mus musculus, UniProt Q61009); experiment: inhibitors of SR-BI mediated HDL lipid uptake, dose response, ldlA[mSR-BI] cells, fluorescence, cherry pick (AID 493194); format: functional, cell-based;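 also: cellular uptake of fluorescent DiI-labeled HDL measured as cell fluorescence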
Scavenger receptor class B member 1, sequence (Q61009 whole entry): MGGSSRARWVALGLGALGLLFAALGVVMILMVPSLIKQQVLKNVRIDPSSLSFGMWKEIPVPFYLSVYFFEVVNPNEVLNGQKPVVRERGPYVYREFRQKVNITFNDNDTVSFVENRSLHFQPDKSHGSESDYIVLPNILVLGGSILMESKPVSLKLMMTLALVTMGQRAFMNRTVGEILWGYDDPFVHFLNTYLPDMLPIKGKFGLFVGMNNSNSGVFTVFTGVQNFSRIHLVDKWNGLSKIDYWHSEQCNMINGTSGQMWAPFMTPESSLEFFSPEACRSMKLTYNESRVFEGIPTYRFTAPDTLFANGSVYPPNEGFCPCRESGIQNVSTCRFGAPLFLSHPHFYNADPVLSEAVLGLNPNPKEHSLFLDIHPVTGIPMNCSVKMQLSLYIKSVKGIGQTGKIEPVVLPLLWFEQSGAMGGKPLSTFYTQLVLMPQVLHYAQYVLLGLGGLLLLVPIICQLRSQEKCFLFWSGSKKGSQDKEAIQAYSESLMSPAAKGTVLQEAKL

[12] = THP-1 cell cytotoxicity, dose response, cytotoxicity control for non-replicating M. tuberculosis project (AID 489025); format: functional
[13] = HepG2 cell cytotoxicity, dose response, cytotoxicity control for non-replicating M. tuberculosis project (AID 489018); format: functional; settings: Mycobacterium tuberculosis
[14] = biological target: Trypsin (Sus scrofa, UniProt P00761); experiment: porcine trypsin inhibitors, dose response, selectivity assay for Rce1 protease inhibitor project, biochemical, quenched peptide fluorescence, cherry-pick (AID 488789)
Trypsin, sequence (P00761 whole entry): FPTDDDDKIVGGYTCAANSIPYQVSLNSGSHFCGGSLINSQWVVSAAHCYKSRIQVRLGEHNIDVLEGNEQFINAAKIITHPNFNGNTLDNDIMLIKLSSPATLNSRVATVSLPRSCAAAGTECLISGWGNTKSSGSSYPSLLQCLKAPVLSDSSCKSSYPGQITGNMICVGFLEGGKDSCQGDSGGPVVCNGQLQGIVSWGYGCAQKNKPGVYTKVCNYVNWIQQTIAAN

[15] = biological target: T3, DNA repair and recombination protein RAD54-like (Homo sapiens, UniProt Q92698); experiment: inhibitors of human RAD54 branch migration, confirmation, biochemical, fluorescence, cherry-picked samples, dose series (AID 651657); format: functional
T3 sequence (Q92698 whole entry): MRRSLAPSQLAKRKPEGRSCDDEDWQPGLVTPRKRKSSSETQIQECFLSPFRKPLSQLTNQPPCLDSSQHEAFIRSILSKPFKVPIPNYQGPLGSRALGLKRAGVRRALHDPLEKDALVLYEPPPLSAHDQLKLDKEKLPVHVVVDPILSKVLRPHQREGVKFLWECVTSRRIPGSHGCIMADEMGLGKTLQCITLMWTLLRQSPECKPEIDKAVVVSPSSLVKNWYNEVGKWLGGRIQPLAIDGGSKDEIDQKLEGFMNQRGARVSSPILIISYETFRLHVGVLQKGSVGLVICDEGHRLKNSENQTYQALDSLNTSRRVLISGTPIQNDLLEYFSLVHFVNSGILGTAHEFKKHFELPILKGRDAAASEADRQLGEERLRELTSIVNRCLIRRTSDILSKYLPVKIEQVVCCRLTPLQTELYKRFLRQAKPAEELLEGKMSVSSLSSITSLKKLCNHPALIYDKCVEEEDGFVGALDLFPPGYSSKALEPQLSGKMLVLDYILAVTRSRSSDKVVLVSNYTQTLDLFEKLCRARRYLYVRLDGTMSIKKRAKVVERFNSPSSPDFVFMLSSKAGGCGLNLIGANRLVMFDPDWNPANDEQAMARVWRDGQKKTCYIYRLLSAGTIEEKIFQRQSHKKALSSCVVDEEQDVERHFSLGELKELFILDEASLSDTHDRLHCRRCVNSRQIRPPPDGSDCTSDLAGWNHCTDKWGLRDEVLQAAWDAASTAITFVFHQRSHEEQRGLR

In the case of `CCOc1ccc(CCOc2c(Cl)cnn(-c3ccc(C)cc3)c2=O)cc1OCC`, the IC50 [1] is reported as 14.5 µM (inactive) and the IC50 [2] is reported as 5.5 µM (active).

With `Cc1cc(Br)ccc1NC(=O)CCCOc1cc(=O)n(C)c2ccccc12` the EC50 [3] was > 49.7 µM (inactive) and the EC50 [4] was > 49.7 µM (inactive).

In the case of `CC(C)Cc1ccc(S(=O)(=O)NCc2ccc(C(=O)NCCN(Cc3ccccc3)C(C)C)cc2)cc1`, the IC50 [5] is reported as > 32 µM (inactive), the IC50 [6] is reported as 4.02 µM (active) and the IC50 [7] is reported as > 32 µM (inactive). For the same compound, the IC50 [8] was 0.595 µM (active).

With `O=C(/C=N/O)Nc1ccc(F)cc1` the IC50 [9] was > 64 µM (inactive).

With `OC1CCN(c2cc(-c3ccccc3)nc3cc(-c4ccc(F)cc4)nn23)CC1` the AC50 [10] was 4.72 µM (active) and the AC50 [11] was 11.8 µM (active).

With `Clc1ccc(SCCCCN2CCNCC2)cc1` the CC50 [12] was > 40 µM (active) and the CC50 [13] was > 20 µM (active).

With `COc1ccc2c(c1)c1ncn(CCN3CCCC3)c(=O)c1n2C` the AC50 [14] was 19.7 µM (active) and the AC50 [15] was 23.3 µM (active).
